Laboratory results reported in patent US12060347B2 (BRISTOL-MYERS SQUIBB COMPANY, priority 2016, dated 2024).

The molecules below were run against T1, human PAR4 (Homo sapiens, UniProt Q96RI0) (assay: PAR4 FLIPR assay: antagonism of agonist-peptide-induced calcium mobilization in PAR4-expressing HEK293 cells). Conditions: H-Ala-Phe(4-F)-[…]NH2-induced intracellular calcium mobilization, 11-point curves.
T1 construct: expressed in transfected cells; host or cells: HEK293 PAR4 Clone 1.2A (BMS Arctic ID 383940)
T1 sequence (Q96RI0 18-385): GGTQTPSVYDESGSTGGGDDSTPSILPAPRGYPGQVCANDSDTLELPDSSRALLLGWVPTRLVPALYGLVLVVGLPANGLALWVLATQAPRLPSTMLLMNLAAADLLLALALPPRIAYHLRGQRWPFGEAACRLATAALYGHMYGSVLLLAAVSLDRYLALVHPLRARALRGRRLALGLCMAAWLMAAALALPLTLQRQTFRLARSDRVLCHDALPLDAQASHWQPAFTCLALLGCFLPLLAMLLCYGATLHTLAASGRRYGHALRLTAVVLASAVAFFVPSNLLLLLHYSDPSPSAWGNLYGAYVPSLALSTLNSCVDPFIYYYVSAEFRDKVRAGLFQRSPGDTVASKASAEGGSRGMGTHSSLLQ
Format: cell-based

SMILES	IC50
COc1cnc2c(-c3nc4cc(F)c(O[C@@H](C)[C@@H](C)OC(=O)Nc5ccnc(OCCC(C)(C)O)c5)cc4s3)cc(C)cc2n1 [Example 563, (2R,3S)-3-((5-fluoro-2-(2-methoxy-7-methylquinoxalin-5-yl)benzo[d]thiazol-6-yl)oxy)butan-2-yl (2-(3-hydroxy-3-methylbutoxy)pyridin-4-yl)carbamate]	2.8 nM
COc1cnc2c(-c3nc4cc(F)c(OC[C@@H](C)OC(=O)Nc5cnc(CCO)nc5)cc4s3)cc(C)cc2n1 [Example 564, (R)-1-((5-fluoro-2-(2-methoxy-7-methylquinoxalin-5-yl)benzo[d]thiazol-6-yl)oxy)propan-2-yl (2-(2-hydroxyethyl)pyrimidin-5-yl)carbamate]	3.7 nM
COc1cnc2c(-c3nc4cc(F)c(OC[C@@H](C)OC(=O)Nc5ccnc(OCCC(C)(C)O)c5)cc4s3)cc(C)cc2n1 [Example 567, (R)-1-((5-fluoro-2-(2-methoxy-7-methylquinoxalin-5-yl)benzo[d]thiazol-6-yl)oxy)propan-2-yl (2-(3-hydroxy-3-methylbutoxy)pyridin-4-yl)carbamate]	5.9 nM
COc1cnc2c(-c3nc4cc(F)c(OC[C@@H](C)OC(=O)Nc5cnc(OCCC(C)(C)O)nc5)cc4s3)cc(C)cc2n1 [Example 569, (R)-1-((5-fluoro-2-(2-methoxy-7-methylquinoxalin-5-yl)benzo[d]thiazol-6-yl)oxy)propan-2-yl (2-(3-hydroxy-3-methylbutoxy)pyrimidin-5-yl)carbamate]	8.2 nM
COc1cnc2c(-c3nc4cc(F)c(O[C@@H](C)[C@@H](C)OC(=O)Nc5cnc(OCCC(C)(C)O)nc5)cc4s3)cc(C)cc2n1 [Example 570, (2R,3S)-3-((5-fluoro-2-(2-methoxy-7-methylquinoxalin-5-yl)benzo[d]thiazol-6-yl)oxy)butan-2-yl (2-(3-hydroxy-3-methylbutoxy)pyrimidin-5-yl)carbamate]	6.6 nM
COc1cnc2c(-c3nc4cc(F)c(OC[C@@H](C)OC(=O)Nc5cnc(OCC(C)(C)O)nc5)cc4s3)cc(C)cc2n1 [Example 576, (R)-1-((5-fluoro-2-(2-methoxy-7-methylquinoxalin-5-yl)benzo[d]thiazol-6-yl)oxy)propan-2-yl (2-(2-hydroxy-2-methylpropoxy)pyrimidin-5-yl)carbamate]	1.2 nM
COc1cnc2c(-c3nc4cc(F)c(O[C@@H](C)[C@@H](C)OC(=O)Nc5cnc(CCO)nc5)cc4s3)cc(Cl)cc2c1 [Example 579, (2R,3S)-3-((2-(6-chloro-3-methoxyquinolin-8-yl)-5-fluorobenzo[d]thiazol-6-yl)oxy)butan-2-yl (2-(2-hydroxyethyl)pyrimidin-5-yl)carbamate]	3.3 nM
CCOc1cnc2c(-c3nc4cc(F)c(O[C@@H](C)[C@@H](C)OC(=O)Nc5cnc(OC[C@@H](C)O)nc5)cc4s3)cc(C)cc2n1 [Example 580, (2R,3S)-3-((2-(2-ethoxy-7-methylquinoxalin-5-yl)-5-fluorobenzo[d]thiazol-6-yl)oxy)butan-2-yl (2-((R)-2-hydroxypropoxy)pyrimidin-5-yl)carbamate]	1.1 nM
COc1cnc2c(-c3nc4c(Cl)c(F)c(OC[C@@H](C)OC(=O)Nc5cnc(C)nc5)cc4s3)cc(C)cc2n1 [Example 589, (R)-1-((4-chloro-5-fluoro-2-(2-methoxy-7-methylquinoxalin-5-yl)benzo[d]thiazol-6-yl)oxy)propan-2-yl (2-methylpyrimidin-5-yl)carbamate]	0.8 nM
COc1cnc2c(-c3nc4c(Cl)c(F)c(OC[C@@H](C)OC(=O)Nc5cccnc5C)cc4s3)cc(C)cc2n1 [Example 590, (R)-1-((4-chloro-5-fluoro-2-(2-methoxy-7-methylquinoxalin-5-yl)benzo[d]thiazol-6-yl)oxy)propan-2-yl (2-methylpyridin-3-yl)carbamate]	25 nM
COc1cnc2c(-c3nc4c(Cl)c(F)c(OC[C@@H](C)OC(=O)Nc5cncnc5)cc4s3)cc(C)cc2n1 [Example 591, (R)-1-((4-chloro-5-fluoro-2-(2-methoxy-7-methylquinoxalin-5-yl)benzo[d]thiazol-6-yl)oxy)propan-2-yl pyrimidin-5-ylcarbamate]	7 nM

Continued, values first:

IC50	SMILES
1.6 nM	COc1cnc2c(-c3nc4cc(F)c(O[C@@H](C)[C@@H](C)OC(=O)Nc5ccnc(OCC(C)(C)O)c5)cc4s3)cc(C)cc2n1 [Example 562, (2R,3S)-3-((5-fluoro-2-(2-methoxy-7-methylquinoxalin-5-yl)benzo[d]thiazol-6-yl)oxy)butan-2-yl (2-(2-hydroxy-2-methylpropoxy)pyridin-4-yl)carbamate]
3 nM	COc1cnc2c(-c3nc4cc(F)c(O[C@@H](C)[C@@H](C)OC(=O)Nc5cnc(CCO)nc5)cc4s3)cc(C)cc2n1 [Example 565, (2R,3S)-3-((5-fluoro-2-(2-methoxy-7-methylquinoxalin-5-yl)benzo[d]thiazol-6-yl)oxy)butan-2-yl (2-(2-hydroxyethyl)pyrimidin-5-yl)carbamate]
1.8 nM	CCOc1cnc2c(-c3nc4cc(F)c(O[C@@H](C)[C@@H](C)OC(=O)Nc5cnc(CCO)nc5)cc4s3)cc(C)cc2n1 [Example 566, (2R,3S)-3-((2-(2-ethoxy-7-methylquinoxalin-5-yl)-5-fluorobenzo[d]thiazol-6-yl)oxy)butan-2-yl (2-(2-hydroxyethyl)pyrimidin-5-yl)carbamate]
2.4 nM	CCOc1cnc2c(-c3nc4cc(F)c(O[C@@H](C)[C@@H](C)OC(=O)Nc5cnc(OCCO)nc5)cc4s3)cc(C)cc2n1 [Example 568, (2R,3S)-3-((2-(2-ethoxy-7-methylquinoxalin-5-yl)-5-fluorobenzo[d]thiazol-6-yl)oxy)butan-2-yl (2-(2-hydroxyethoxy)pyrimidin-5-yl)carbamate]
1 nM	COc1cnc2c(-c3nc4cc(F)c(O[C@@H](C)[C@@H](C)OC(=O)Nc5ccc(OCCO)nc5)cc4s3)cc(C)cc2n1 [Example 571, (2R,3S)-3-((5-fluoro-2-(2-methoxy-7-methylquinoxalin-5-yl)benzo[d]thiazol-6-yl)oxy)butan-2-yl (6-(2-hydroxyethoxy)pyridin-3-yl)carbamate]
0.9 nM	COc1cnc2c(-c3nc4cc(F)c(OC[C@@H](C)OC(=O)Nc5ccc(OCCO)nc5)cc4s3)cc(C)cc2n1 [Example 572, (R)-1-((5-fluoro-2-(2-methoxy-7-methylquinoxalin-5-yl)benzo[d]thiazol-6-yl)oxy)propan-2-yl (6-(2-hydroxyethoxy)pyridin-3-yl)carbamate]
1.6 nM	COc1cnc2c(-c3nc4cc(F)c(O[C@@H](C)[C@@H](C)OC(=O)Nc5ccc(OCC(F)(F)CO)nc5)cc4s3)cc(C)cc2n1 [Example 573, (2R,3S)-3-((5-fluoro-2-(2-methoxy-7-methylquinoxalin-5-yl)benzo[d]thiazol-6-yl)oxy)butan-2-yl (6-(2,2-difluoro-3-hydroxypropoxy)pyridin-3-yl)carbamate]
2 nM	COc1cnc2c(-c3nc4cc(F)c(OC[C@@H](C)OC(=O)Nc5ccc(OCC(F)(F)CO)nc5)cc4s3)cc(C)cc2n1 [Example 574, (R)-1-((5-fluoro-2-(2-methoxy-7-methylquinoxalin-5-yl)benzo[d]thiazol-6-yl)oxy)propan-2-yl (6-(2,2-difluoro-3-hydroxypropoxy)pyridin-3-yl)carbamate]
0.6 nM	COc1cnc2c(-c3nc4cc(F)c(O[C@@H](C)[C@@H](C)OC(=O)Nc5cnc(OCC(C)(C)O)nc5)cc4s3)cc(C)cc2n1 [Example 575, (2R,3S)-3-((5-fluoro-2-(2-methoxy-7-methylquinoxalin-5-yl)benzo[d]thiazol-6-yl)oxy)butan-2-yl (2-(2-hydroxy-2-methylpropoxy)pyrimidin-5-yl)carbamate]
1 nM	COc1cnc2c(-c3nc4cc(F)c(O[C@@H](C)[C@@H](C)OC(=O)Nc5cnc(CC(C)(C)O)nc5)cc4s3)cc(C)cc2n1 [Example 577, (2R,3S)-3-((5-fluoro-2-(2-methoxy-7-methylquinoxalin-5-yl)benzo[d]thiazol-6-yl)oxy)butan-2-yl (2-(2-hydroxy-2-methylpropyl)pyrimidin-5-yl)carbamate]
5.8 nM	COc1cnc2c(-c3nc4cc(F)c(O[C@@H](C)[C@@H](C)OC(=O)Nc5cnc(OC[C@@H](C)O)nc5)cc4s3)cc(C)cc2n1 [Example 578, (2R,3S)-3-((5-fluoro-2-(2-methoxy-7-methylquinoxalin-5-yl)benzo[d]thiazol-6-yl)oxy)butan-2-yl (2-((R)-2-hydroxypropoxy)pyrimidin-5-yl)carbamate]
4.1 nM	COc1cnc2c(-c3nc4cc(F)c(O[C@@H](C)[C@@H](C)OC(=O)Nc5cnc(OC[C@H](C)O)nc5)cc4s3)cc(C)cc2n1 [Example 581, (2R,3S)-3-((5-fluoro-2-(2-methoxy-7-methylquinoxalin-5-yl)benzo[d]thiazol-6-yl)oxy)butan-2-yl (2-((S)-2-hydroxypropoxy)pyrimidin-5-yl)carbamate]
5.3 nM	CCOc1cnc2c(-c3nc4cc(F)c(O[C@@H](C)[C@@H](C)OC(=O)Nc5cnc(OC[C@H](C)O)nc5)cc4s3)cc(C)cc2n1 [Example 582, (2R,3S)-3-((2-(2-ethoxy-7-methylquinoxalin-5-yl)-5-fluorobenzo[d]thiazol-6-yl)oxy)butan-2-yl (2-((S)-2-hydroxypropoxy)pyrimidin-5-yl)carbamate]
0.7 nM	COc1cnc2c(-c3nc4cc(F)c(OC[C@@H](C)OC(=O)Nc5ccc(C)nc5)cc4s3)cc(C)cc2n1 [Example 592, (R)-1-((5-fluoro-2-(2-methoxy-7-methylquinoxalin-5-yl)benzo[d]thiazol-6-yl)oxy)propan-2-yl (6-methylpyridin-3-yl)carbamate]
